How the values were obtained:
Assay type in all cases: in vivo
[1] = system: ivy-leaved morning glory (Ipomoea hederacea); experiment: Test G Post-Emergence Protocol; settings: Ipomoea, post-emergence, 312 h, read-out: Morningglory, Ivy-leaved damage rating
Method in brief: (§1)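 Seedlings grown 8 days in soil in a glasshouse (24/16 °C day/night, 14 h light, 65% humidity) were sprayed post-emergence with compound in acetone/water 50:50 plus 0.5% Tween 20 at 15.625, 62.5 or 250 g/ha. Damage was scored after 13 days on a 0–100 scale (100 = total damage).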

[2] = system: giant foxtail (Setaria faberi); experiment: Test G Post-Emergence Protocol; settings: Setaria faberi, post-emergence, 312 h, read-out: Foxtail, Giant damage rating
Method in brief: as §1

[3] = system: velvetleaf (Abutilon theophrasti); experiment: Test G Post-Emergence Protocol; settings: Abutilon theophrasti, post-emergence, 312 h, read-out: Velvetleaf damage rating
Method in brief: as §1

[4] = system: corn (Zea mays); experiment: Test G Post-Emergence Protocol; settings: Zea mays, post-emergence, 312 h, read-out: Corn damage rating
Method in brief: as §1

[5] = system: redroot pigweed (Amaranthus retroflexus); experiment: Test G Post-Emergence Protocol; settings: Amaranthus retroflexus, post-emergence, 312 h, read-out: Pigweed, Redroot damage rating
Method in brief: as §1

[6] = system: barnyardgrass (Echinochloa crus-galli); experiment: Test G Post-Emergence Protocol; settings: Echinochloa crus-galli, post-emergence, 312 h, read-out: Barnyardgrass damage rating
Method in brief: as §1

[7] = system: ivy-leaved morning glory (Ipomoea hederacea); experiment: Test G Pre-Emergence Protocol; settings: Ipomoea, pre-emergence, 312 h, evaluated after 13 days
Method in brief: (§2)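 One day after sowing, pots are treated with a spray of test compound formulated in acetone/water 50:50 plus 0.5% Tween 20, giving 15.625, 62.5 or 250 g/ha. Evaluation on a 0–100 damage scale follows 13 days of glasshouse growth.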

[8] = system: giant foxtail (Setaria faberi); experiment: Test G Pre-Emergence Protocol; settings: Setaria faberi, pre-emergence, 312 h, evaluated after 13 days
Method in brief: as §2

[9] = system: velvetleaf (Abutilon theophrasti); experiment: Test G Pre-Emergence Protocol; settings: Abutilon theophrasti, pre-emergence, 312 h, evaluated after 13 days
Method in brief: as §2

[10] = system: corn (Zea mays); experiment: Test G Pre-Emergence Protocol; settings: Zea mays, pre-emergence, 312 h, evaluated after 13 days
Method in brief: as §2

[11] = system: redroot pigweed (Amaranthus retroflexus); experiment: Test G Pre-Emergence Protocol; settings: Amaranthus retroflexus, pre-emergence, 312 h, evaluated after 13 days
Method in brief: as §2

[12] = system: barnyardgrass (Echinochloa crus-galli); experiment: Test G Pre-Emergence Protocol; settings: Echinochloa crus-galli, pre-emergence, 312 h, evaluated after 13 days
Method in brief: as §2

[13] = 15.625 g ai/ha, evaluated after 13 days (100=total damage to plant; 0=no damage to plant)
[14] = 62.5 g ai/ha, evaluated after 13 days, 100=total damage to plant, 0=no damage to plant
[15] = 250 g ai/ha, evaluated after 13 days, 100=total damage to plant, 0=no damage to plant

Work on `CN1C[C@@H](c2ccc(C(F)(F)F)cc2)[C@H](C(=O)Nc2ccnc(Cl)c2F)C1=O` (racemic) [Compound 1656] yielded a pest or weed control at 15.625 g/ha [1, 13] of 0%, a pest or weed control at 62.5 g/ha [1, 14] of 0% and a pest or weed control at 250 g/ha [1, 15] of 0%. It also gave a pest or weed control at 15.625 g/ha [2, 13] of 20%, a pest or weed control at 62.5 g/ha [2, 14] of 30% and a pest or weed control at 250 g/ha [2, 15] of 80%. It also gave a pest or weed control at 15.625 g/ha [3, 13] of 0%, a pest or weed control at 62.5 g/ha [3, 14] of 0% and a pest or weed control at 250 g/ha [3, 15] of 20%. For the same compound, the plant injury at 15.625 g/ha [4, 13] was 0%, the plant injury at 62.5 g/ha [4, 14] was 0% and the plant injury at 250 g/ha [4, 15] was 0%. For the same compound, the pest or weed control at 15.625 g/ha [5, 13] was 0%, the pest or weed control at 62.5 g/ha [5, 14] was 20% and the pest or weed control at 250 g/ha [5, 15] was 30%. The pest or weed control at 15.625 g/ha [6, 13] was 10%, the pest or weed control at 62.5 g/ha [6, 14] was 10% and the pest or weed control at 250 g/ha [6, 15] was 30%. The pest or weed control at 15.625 g/ha ([7]; 15.625 g ai/ha, read-out: Morningglory, Ivy-leaved damage rating (100=total damage to plant; 0=no damage to plant)) was 0%, the pest or weed control at 62.5 g/ha ([7]; 62.5 g ai/ha, 100=total damage to plant, 0=no damage to plant, read-out: Morningglory, Ivy-leaved damage rating) was 20% and the pest or weed control at 250 g/ha ([7]; 250 g ai/ha, read-out: Morningglory, Ivy-leaved damage rating (100=total damage to plant; 0=no damage to plant)) was 0%. The pest or weed control at 15.625 g/ha ([8]; 15.625 g ai/ha, read-out: Foxtail, Giant damage rating (100=total damage to plant; 0=no damage to plant)) was 0%, the pest or weed control at 62.5 g/ha ([8]; 62.5 g ai/ha, 100=total damage to plant, 0=no damage to plant, read-out: Foxtail, Giant damage rating) was 0% and the pest or weed control at 250 g/ha ([8]; 250 g ai/ha, read-out: Foxtail, Giant damage rating (100=total damage to plant; 0=no damage to plant)) was 80%. For the same compound, the pest or weed control at 15.625 g/ha ([9]; 15.625 g ai/ha, read-out: Velvetleaf damage rating (100=total damage to plant; 0=no damage to plant)) was 0%, the pest or weed control at 62.5 g/ha ([9]; 62.5 g ai/ha, 100=total damage to plant, 0=no damage to plant, read-out: Velvetleaf damage rating) was 0% and the pest or weed control at 250 g/ha ([9]; 250 g ai/ha, read-out: Velvetleaf damage rating (100=total damage to plant; 0=no damage to plant)) was 0%. It also gave a plant injury at 15.625 g/ha ([10]; 15.625 g ai/ha, read-out: Corn damage rating (100=total damage to plant; 0=no damage to plant)) of 0%, a plant injury at 62.5 g/ha ([10]; 62.5 g ai/ha, 100=total damage to plant, 0=no damage to plant, read-out: Corn damage rating) of 0% and a plant injury at 250 g/ha ([10]; 250 g ai/ha, read-out: Corn damage rating (100=total damage to plant; 0=no damage to plant)) of 0%. For the same compound, the pest or weed control at 15.625 g/ha ([11]; 15.625 g ai/ha, read-out: Pigweed, Redroot damage rating (100=total damage to plant; 0=no damage to plant)) was 0%, the pest or weed control at 62.5 g/ha ([11]; 62.5 g ai/ha, 100=total damage to plant, 0=no damage to plant, read-out: Pigweed, Redroot damage rating) was 0% and the pest or weed control at 250 g/ha ([11]; 250 g ai/ha, read-out: Pigweed, Redroot damage rating (100=total damage to plant; 0=no damage to plant)) was 0%. For the same compound, the pest or weed control at 15.625 g/ha ([12]; 15.625 g ai/ha, read-out: Barnyardgrass damage rating (100=total damage to plant; 0=no damage to plant)) was 0%, the pest or weed control at 62.5 g/ha ([12]; 62.5 g ai/ha, 100=total damage to plant, 0=no damage to plant, read-out: Barnyardgrass damage rating) was 0% and the pest or weed control at 250 g/ha ([12]; 250 g ai/ha, read-out: Barnyardgrass damage rating (100=total damage to plant; 0=no damage to plant)) was 20%.

— patent US12077503B2, “Substituted cyclic amides and their use as herbicides” (FMC CORPORATION, priority 2015, dated 2024)
